# According to patent US8993622B2, “Antiviral compounds” (Eirium AB, priority 2010, dated 2015):
# Read-outs that look alike come from different tables or passages of the source.
# Columns and labels:
# [1] = biological target: T1, Tn5 transponase (Escherichia coli, UniProt Q46731); conditions: US 2006/0035245; cited from earlier work
# T1 sequence (Q46731 1-476): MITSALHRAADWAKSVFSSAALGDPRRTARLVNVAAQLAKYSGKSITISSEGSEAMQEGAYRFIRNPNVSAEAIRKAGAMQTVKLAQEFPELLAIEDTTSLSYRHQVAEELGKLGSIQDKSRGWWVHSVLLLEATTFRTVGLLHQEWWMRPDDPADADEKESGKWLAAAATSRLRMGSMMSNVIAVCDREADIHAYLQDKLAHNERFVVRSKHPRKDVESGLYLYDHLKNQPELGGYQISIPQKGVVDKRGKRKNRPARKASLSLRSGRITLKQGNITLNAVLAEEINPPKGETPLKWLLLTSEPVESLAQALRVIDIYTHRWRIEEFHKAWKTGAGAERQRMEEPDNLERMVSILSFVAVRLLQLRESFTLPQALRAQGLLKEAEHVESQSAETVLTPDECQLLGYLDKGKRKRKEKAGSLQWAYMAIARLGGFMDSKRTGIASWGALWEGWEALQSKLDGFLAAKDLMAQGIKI
# [2] = system: HSV-1; assay: qPCR of herpes simplex 1 replication in GMK cells; format: cell-based, Herpes simplex virus 1; conditions: 24 h
# Method: Same procedure as for qPCR for adenovirus quantification was followed with the exception of a few steps. Namely, 7×10^4 green monkey kidney (GMK) cells were seeded in 24-well plate the day before infection. Seventy-five virus particles of HSV-1 (stock 1351-95 P13) were added per cell. After 24 h incubation with the compound A02 at 37° C. in 5% CO2, the cells were harvested and DNA was prepared from 200 μL of the total 500 μL well-volume to include the DNA of possible released HSV-1 particles. The primers used in the qPCR assay were; Rune 1 (sense—position 137680-137697 in HSV-1 genome) (5′-GGC CTG GCT ATC CGG AGA-3′—SEQ ID NO:6) and Rune 2 (antisense—position 137742-137726 in HSV-1 genome) (5′-GCG CAG AGA CAT CGC GA-3′—SEQ ID NO:7), the final concentration in the reaction mixture of the primers were 300 nM. As in the adenovirus quantification a FAM-TAMRA labeled probe was used; Rune 3 (5′-CAGCACACGACTTGGCGTTCTGTGT-3′—SEQ ID NO:8) to a final concentration of 175 nM in the reaction mixture.
# [3] = system: Ad5; assay: microbe, parasite or virus in culture; format: cell-based, human adenovirus
# [4] = system: Ad11p; assay: Quantitative real-time PCR of adenovirus DNA replication in A549 cells (Ad11p); format: cell-based, human adenovirus
# Method: Approximately 1×10^5 A549 cells were seeded in 24-well plates (Nunc) on the day before infection. On the day of infection, the cells in one well were counted to establish the amount of virions to be added. The growth medium was removed and compound and virus were added simultaneously to the cells in 700 μl DMEM with 0.75 g/l NaHCO3, 20 mM HEPES, 1×PEST, and 1% FBS. Compounds were added in concentrations ranging from 0.5 μM to 15 μM. The final concentration of DMSO was less than 1% in all samples. One pg of Ad virions was added per cell. The plate was incubated at 37° C. in 5% CO2 and 24 h after infection the cells were harvested, washed once, and resuspended in PBS. DNA was prepared from the samples using the QIAamp DNA Blood Mini Kit (QIAGEN, Solna, Sweden) according to the manufacturer's instructions. The design of primers and probes for analysis of various Ad types representing different adenovirus species with quantitative PCR has been described previously (Allard et al. 2001. Rapid typing of human adenoviruses by a general PCR combined with restriction endonuclease analysis. Journal Clinical Microbiology 39:498-505). Briefly, quantitative real-time PCR was carried out using a degenerate primer pair, Kadgen1 (forward)—Kadgen 2 (reverse) (5′-CWT ACA TGC ACA TCK CSG G-3′—SEQ ID NO:1, and 5′-CRC GGG CRA AYT GCA CCA G-3′—SEQ ID NO:2, respectively); DNA technology A/S, Aarhus, Denmark). This primer pair is specific for the conserved region of the Ad hexon gene and can detect all human Ads. Different FAM-TAMRA probes were used to quantitate Ads from different species: AdB1B2 (5′-6-FAM-AGGATGCTTCGGAGTACCTGAGTCCGG-TAMRA-3′—SEQ ID NO:3) for Ad11p (11) and AdC (5′-6-FAM-AGGACGCCTCGGAGTACCTGAGCCCCG-TAMRA-3′—SEQ ID NO:4) for Ad 5 (all from Applied Biosystems, Cheshire, UK). For Ads from species A, D, E and F the probe AdDF (5′-6-FAM-CCGGGCTCAGGTACTCCGAGGCGTCCT-3′—SEQ ID NO:5) was used (Applied Biosystems). Standard curves ranging from 5 to 5×10^5 genome copies were generated by serial dilution of known amounts of full-length Ad5 or Ad11 DNA. The Ad5 DNA standard was used for the AdDF probe system. […] The program for the real-time PCR was: 2 min at 50° C. to activate UNG, followed by amplification and quantitation (10 min at 95° C. and 40 cycles of 15 sec at 95° C., 1 min at 60° C.). […] Real-time PCR was performed in an ABI PRISM 7700 Sequence Detector (Applied Biosystems) and analyzed with Sequence Detector v1.7a software.
# [5] = Human adenovirus sp., A549, read-out: % inhibition of DNA replication (SD)
structure (smiles),measurement,setting,value
"O=C(Nc1ccccc1C(=O)Nc1ccccc1C(=O)O)c1ccccc1 [Compound A02, 2-[[2-(Benzoylamino)benzoyl]amino]-benzoic acid]",inhibition of Tn5 transponase,[1],found to inhibit
same,inhibitory effect on herpes simplex 1 replication,[2],about the same as observed with the representatives of all the six human adenovirus species
same,effect on the replication of Ad5 (QPCR),[3]; A549 cells,significant inhibitory effect
same,selectivity index (SI=CC50/IC50) for Ad5,[3]; A549 cells,54
same,IC50,"[3]; Human adenovirus sp., A549, 24 h, read-out: IC50 for Ad5 replication (QPCR)",3.7 µM
same,inhibition at 5 µM,[3]; [5],72%
same,inhibition at 15 µM,[3]; [5],86%
same,EC50,"[3]; unidentified adenovirus, A549",3.7 µM
same,inhibition at 5 µM,"[3]; unidentified adenovirus, A549, read-out: % Inh. at 5 μM",89 ± 5%
same,inhibition at 15 µM,"[3]; unidentified adenovirus, A549, read-out: % Inh. at 15 μM",96 ± 1%
same,selectivity index (SI=CC50/IC50) for Ad11p,[4],68
same,IC50,"[4]; Human adenovirus sp., 24 h, read-out: IC50 for Ad11p replication (QPCR)",2900 nM
same,inhibition at 5 µM,"[4]; Human adenovirus sp., Ad11p (B2), 5 μM, read-out: % inhibition of DNA replication (SD)",79%
same,inhibition at 15 µM,"[4]; Human adenovirus sp., Ad11p (B2), 15 μM, read-out: % inhibition of DNA replication (SD)",79%
